Data as given in US7927600B2, “Anti-allergic pharmaceutical composition containing at least one allergen and at least one antihistamine compound” (priority 2001, dated 2011).

Test system: allergic patients
Test: Example 4: adverse effects
Type: in vivo, human
Conditions: patients of Example 4

Compound: CCOc1c(N)c2c(c(OCC)c1OCC)C(C1c3c(cc4c(c3OC)OCO4)CCN1C)OC2=O (stereo not shown) [Hypostamine, tritoqualine]
- Adverse Effects, Conclusion (frequency): Very rare
